According to patent publication US20230278972A1, “SUBSTITUTED HALOALKYL SULFONANILIDE HERBICIDES” (FMC Corporation, priority 2020, published 2023):

What was measured:
[1] = system: barnyardgrass (Echinochloa crus-galli); assay: Test A preemergence, barnyardgrass; format: in vivo; conditions: Echinochloa crus-galli, pre-emergence, 240 h; for pest or weed control at 500 g/ha: read-out: Barnyardgrass plant response rating
In short: (§1)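 Test chemicals, formulated in a non-phytotoxic solvent mixture with surfactant, were sprayed postemergence on plants 2 to 10 cm tall at the one- to two-leaf stage. Preemergence treatment was a directed soil spray onto freshly seeded pots. Both used a loam soil and sand blend.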

kochia (Bassia scoparia) [2] = assay: Test A preemergence, kochia; format: in vivo; conditions: Bassia scoparia, pre-emergence, 240 h; for pest or weed control at 500 g/ha: read-out: Kochia plant response rating
In short: as §1

[3] = system: Ryegrass, Italian (Italian ryegrass, Lolium multiflorum); assay: Test A preemergence, Ryegrass, Italian; format: in vivo; conditions: Lolium multiflorum, pre-emergence, 240 h; for pest or weed control at 500 g/ha: read-out: Ryegrass, Italian plant response rating
In short: as §1

[4] = system: Foxtail, Giant (giant foxtail, Setaria faberi); assay: Test A preemergence, Foxtail, Giant; format: in vivo; conditions: Setaria faberi, pre-emergence, 240 h; for pest or weed control at 500 g/ha: read-out: Foxtail, Giant plant response rating
In short: as §1

[5] = system: pigweed (Amaranthus retroflexus); assay: Test A preemergence, pigweed; format: in vivo; conditions: Amaranthus retroflexus, pre-emergence, 240 h, 1000 g ai/ha, 0 to 100 scale (0 no effect, 100 complete control), read-out: Plant response rating, Pigweed
In short: (§2)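 Formulated with a surfactant in a non-phytotoxic solvent, compounds are applied to loam–sand pots, either to bare soil immediately after seeding (preemergence) or to seedlings of 2 to 10 cm bearing one to two leaves (postemergence).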

[6] = system: barnyardgrass (Echinochloa crus-galli); assay: Test A postemergence, barnyardgrass; format: in vivo; conditions: Echinochloa crus-galli, post-emergence, 240 h, read-out: Plant response rating, Barnyardgrass
In short: as §2

kochia (Bassia scoparia) [7] = assay: Test A postemergence, kochia; format: in vivo; conditions: Bassia scoparia, post-emergence, 240 h, read-out: Plant response rating, Kochia
In short: as §1

[8] = system: ragweed (common ragweed, Ambrosia artemisiifolia); assay: Test A postemergence, ragweed; format: in vivo; conditions: Ambrosia artemisiifolia, post-emergence, 240 h, read-out: Plant response rating, Ragweed
In short: as §1

[9] = system: Ryegrass, Italian (Italian ryegrass, Lolium multiflorum); assay: Test A postemergence, Ryegrass, Italian; format: in vivo; conditions: Lolium multiflorum, post-emergence, 240 h, read-out: Plant response rating, Ryegrass, Italian
In short: as §1

[10] = system: Foxtail, Giant (giant foxtail, Setaria faberi); assay: Test A postemergence, Foxtail, Giant; format: in vivo; conditions: Setaria faberi, post-emergence, 240 h, read-out: Plant response rating, Foxtail, Giant
In short: as §1

[11] = system: pigweed (Amaranthus retroflexus); assay: Test A postemergence, pigweed; format: in vivo; conditions: Amaranthus retroflexus, post-emergence, 240 h, read-out: Plant response rating, Pigweed
In short: as §1

[12] = system: wheat (Triticum aestivum); assay: Test A postemergence, wheat; format: in vivo; conditions: Triticum aestivum, post-emergence, 240 h, read-out: Plant response rating, Wheat
In short: as §2

corn (Zea mays) = assay: Test A postemergence, corn; format: in vivo; conditions: Zea mays, post-emergence, 240 h; for plant injury at 125 g/ha / plant injury at 500 g/ha: read-out: Plant response rating, Corn
In short: as §1

[13] = system: blackgrass (Alopecurus myosuroides); assay: Test A postemergence, blackgrass; format: in vivo; conditions: Alopecurus myosuroides, post-emergence, 240 h, read-out: Plant response rating, Blackgrass
In short: as §1

[14] = system: galium (catchweed bedstraw, Galium aparine); assay: Test A postemergence, galium; format: in vivo; conditions: Galium, post-emergence, 240 h, read-out: Plant response rating, Galium
In short: as §2

rice (Oryza sativa) = assay: Test B flooded paddy test, rice; conditions: 336 h, read-out: Plant response rating, Rice
[15] = system: ducksalad (Heteranthera limosa); assay: Test B flooded paddy test, ducksalad; conditions: 336 h, read-out: Plant response rating, Ducksalad
[16] = system: barnyardgrass (Echinochloa crus-galli); assay: Test B flooded paddy test, barnyardgrass; conditions: 336 h, read-out: Plant response rating, Barnyardgrass
[17] = system: ragweed (common ragweed, Ambrosia artemisiifolia); assay: Test A preemergence, ragweed; format: in vivo; conditions: Ambrosia artemisiifolia, pre-emergence, 240 h; for pest or weed control at 125 g/ha: read-out: Plant response rating, Ragweed; for pest or weed control at 500 g/ha: read-out: Ragweed plant response rating
In short: as §1

[18] = Postemergence, 1000 g ai/ha, visual injury, 0 to 100 scale (0 no effect, 100 complete control), approx. 10 days
[19] = read-out: Plant response rating, Barnyardgrass
[20] = read-out: Plant response rating, Kochia
[21] = read-out: Plant response rating, Ryegrass, Italian
[22] = read-out: Plant response rating, Foxtail, Giant

Row | Compound | plant injury at 250 g/ha (rice (Oryza sativa)) [%] | pest or weed control at 250 g/ha [15] [%] | pest or weed control at 250 g/ha [16] [%] | pest or weed control at 500 g/ha [1] [%] | pest or weed control at 125 g/ha [1, 19] [%] | pest or weed control at 500 g/ha (kochia (Bassia scoparia) [2]) [%] | pest or weed control at 125 g/ha (kochia (Bassia scoparia) [2]; [20]) [%] | pest or weed control at 125 g/ha [17] [%] | pest or weed control at 500 g/ha [17] [%] | pest or weed control at 125 g/ha [3, 21] [%] | pest or weed control at 500 g/ha [3] [%] | pest or weed control at 500 g/ha [4] [%] | pest or weed control at 125 g/ha [4, 22] [%] | pest or weed control at 125 g/ha [6] [%] | pest or weed control at 500 g/ha [6] [%] | pest or weed control at 125 g/ha (kochia (Bassia scoparia) [7]) [%] | pest or weed control at 500 g/ha (kochia (Bassia scoparia) [7]) [%] | pest or weed control at 125 g/ha [8] [%] | pest or weed control at 500 g/ha [8] [%] | pest or weed control at 125 g/ha [9] [%] | also measured
1 | Cc1cc(C)c(C(=O)N2CCOCC2)cc1NS(=O)(=O)C(F)(F)F [Compound 6, N-[2,4-Dimethyl-5-(4-morpholinylcarbonyl)phenyl]-1,1,1-trifluoromethanesulfonamide] | 0 | 0 | 0 |  |  |  |  |  |  |  |  |  |  |  |  |  |  |  |  |  | pest or weed control at 1000 g/ha ([1]; Preemergence, 1000 g ai/ha, 0 to 100 scale (0 no effect, 100 complete control), read-out: Plant response rating, Barnyardgrass): 100%; pest or weed control at 1000 g/ha (kochia (Bassia scoparia) [2]; Preemergence, 1000 g ai/ha, 0 to 100 scale (0 no effect, 100 complete control), read-out: Plant response rating, Kochia): 100%; pest or weed control at 1000 g/ha ([3]; Preemergence, 1000 g ai/ha, 0 to 100 scale (0 no effect, 100 complete control), read-out: Plant response rating, Ryegrass, Italian): 100%; pest or weed control at 1000 g/ha ([4]; Preemergence, 1000 g ai/ha, 0 to 100 scale (0 no effect, 100 complete control), read-out: Plant response rating, Foxtail, Giant): 100%; pest or weed control at 1000 g/ha [5]: 100%; pest or weed control at 1000 g/ha [6, 18]: 90%; pest or weed control at 1000 g/ha (kochia (Bassia scoparia) [7]; [18]): 80%; pest or weed control at 1000 g/ha [8, 18]: 50%; pest or weed control at 1000 g/ha [9, 18]: 80%; pest or weed control at 1000 g/ha [10, 18]: 90%; pest or weed control at 1000 g/ha [11, 18]: 100%; plant injury at 1000 g/ha [12, 18]: 60%; Corn plant response rating (crop injury, 0 = no effect, 100 = complete kill) at 1000 g/ha (corn (Zea mays); [18]): 60%; pest or weed control at 1000 g/ha [13, 18]: 60%; pest or weed control at 1000 g/ha [14, 18]: 90%
2 | Cc1cc(C)c(N(COC(=O)C(C)(C)C)S(=O)(=O)C(F)(F)F)cc1N1CCC2(CCCCC2)C1=O [Compound 268, [[2,4-Dimethyl-5-(1-oxo-2-azaspiro[4.5]dec-2-yl)phenyl][(trifluoromethyl)sulfonyl]amino]methyl 2,2-dimethylpropanoate] | 0 | 70 | 40 | 50 | 40 | 70 | 70 | 40 | 90 | 0 | 60 | 70 | 50 | 50 | 80 | 30 | 40 | 70 | 90 | 40 | pest or weed control at 500 g/ha [9]: 60%; pest or weed control at 125 g/ha [10]: 0%; pest or weed control at 500 g/ha [10]: 30%; pest or weed control at 125 g/ha [11]: 60%; pest or weed control at 500 g/ha [11]: 80%; plant injury at 125 g/ha [12]: 50%; plant injury at 500 g/ha [12]: 70%; plant injury at 125 g/ha (corn (Zea mays)): 50%; plant injury at 500 g/ha (corn (Zea mays)): 70%; pest or weed control at 125 g/ha [13]: 20%; pest or weed control at 500 g/ha [13]: 40%; pest or weed control at 125 g/ha [14]: 90%; pest or weed control at 500 g/ha [14]: 90%
3 | Cc1cc(C)c(N2CCC3(CCCCC3)C2=O)cc1NS(=O)(=O)C(F)(F)F [Compound 278, N-[2,4-Dimethyl-5-(1-oxo-2-azaspiro[4.5]dec-2-yl)phenyl]-1,1,1-trifluoromethanesulfonamide] | 15 | 85 | 0 | 100 | 60 | 100 | 90 | 90 | 100 | 100 | 100 | 100 | 60 | 20 | 80 | 30 | 70 | 40 | 60 | 30 | pest or weed control at 500 g/ha [9]: 80%; pest or weed control at 125 g/ha [10]: 0%; pest or weed control at 500 g/ha [10]: 20%; pest or weed control at 125 g/ha [11]: 60%; pest or weed control at 500 g/ha [11]: 90%; plant injury at 125 g/ha [12]: 60%; plant injury at 500 g/ha [12]: 70%; plant injury at 125 g/ha (corn (Zea mays)): 0%; plant injury at 500 g/ha (corn (Zea mays)): 30%; pest or weed control at 125 g/ha [13]: 0%; pest or weed control at 500 g/ha [13]: 50%; pest or weed control at 125 g/ha [14]: 90%; pest or weed control at 500 g/ha [14]: 90%
